This note sets out measurements from BindingDB's records for patent US10117944 (Madrigal Pharmaceuticals, 2018).

The experiment has as its target Receptor tyrosine-protein kinase erbB-2 (Homo sapiens, UniProt P04626). The experiment is described as follows: HER2 Degradation Assay with BT-474 Cell Line. An excerpt:
HER2 has emerged as a key target for anticancer drugs due to its intrinsic involvement in the phosphatidylinositol-3-kinase-Akt/protein kinase B (PI3 K-Akt) and the mitogen-activated protein kinase (MAPK) pathways, both of which suppress apoptosis and promote tumor cell survival, gene transcription, angiogenesis, cellular proliferation, migration, mitosis, and differentiation. The degradation of HER2 is a measure of efficacy of anticancer therapeutics that target Hsp90. Accordingly, the SDC-TRAP molecules of the invention that comprise a binding moiety that binds Hsp90 were tested in the following HER2 degradation assay.BT-474 cells (human breast cancer cell line ATCC HTB-20) were obtained from ATCC and seeded into 12-well tissue culture plates at 0.2x106/1.8 mL/well. […] Each test compound was titrated in 4-fold dilutions from 5 μM to 78 nM with DMSO and 200 μL of the titration was added to each well of the cell plate. The DMSO final concentration was 0.2%. Cells were incubated overnight at 37° C. in 5% CO2.Media was decanted from the plate, cells were washed 1x in PBS. 400 μL trypsin (EDTA) per well was added, and the cells were incubated for 2 to 3 minutes. […] The cytometer readout was normalized and the potency of each compound was evaluated with IC50 calculated with XLfit software.

Sequence of Receptor tyrosine-protein kinase erbB-2 (P04626 whole entry): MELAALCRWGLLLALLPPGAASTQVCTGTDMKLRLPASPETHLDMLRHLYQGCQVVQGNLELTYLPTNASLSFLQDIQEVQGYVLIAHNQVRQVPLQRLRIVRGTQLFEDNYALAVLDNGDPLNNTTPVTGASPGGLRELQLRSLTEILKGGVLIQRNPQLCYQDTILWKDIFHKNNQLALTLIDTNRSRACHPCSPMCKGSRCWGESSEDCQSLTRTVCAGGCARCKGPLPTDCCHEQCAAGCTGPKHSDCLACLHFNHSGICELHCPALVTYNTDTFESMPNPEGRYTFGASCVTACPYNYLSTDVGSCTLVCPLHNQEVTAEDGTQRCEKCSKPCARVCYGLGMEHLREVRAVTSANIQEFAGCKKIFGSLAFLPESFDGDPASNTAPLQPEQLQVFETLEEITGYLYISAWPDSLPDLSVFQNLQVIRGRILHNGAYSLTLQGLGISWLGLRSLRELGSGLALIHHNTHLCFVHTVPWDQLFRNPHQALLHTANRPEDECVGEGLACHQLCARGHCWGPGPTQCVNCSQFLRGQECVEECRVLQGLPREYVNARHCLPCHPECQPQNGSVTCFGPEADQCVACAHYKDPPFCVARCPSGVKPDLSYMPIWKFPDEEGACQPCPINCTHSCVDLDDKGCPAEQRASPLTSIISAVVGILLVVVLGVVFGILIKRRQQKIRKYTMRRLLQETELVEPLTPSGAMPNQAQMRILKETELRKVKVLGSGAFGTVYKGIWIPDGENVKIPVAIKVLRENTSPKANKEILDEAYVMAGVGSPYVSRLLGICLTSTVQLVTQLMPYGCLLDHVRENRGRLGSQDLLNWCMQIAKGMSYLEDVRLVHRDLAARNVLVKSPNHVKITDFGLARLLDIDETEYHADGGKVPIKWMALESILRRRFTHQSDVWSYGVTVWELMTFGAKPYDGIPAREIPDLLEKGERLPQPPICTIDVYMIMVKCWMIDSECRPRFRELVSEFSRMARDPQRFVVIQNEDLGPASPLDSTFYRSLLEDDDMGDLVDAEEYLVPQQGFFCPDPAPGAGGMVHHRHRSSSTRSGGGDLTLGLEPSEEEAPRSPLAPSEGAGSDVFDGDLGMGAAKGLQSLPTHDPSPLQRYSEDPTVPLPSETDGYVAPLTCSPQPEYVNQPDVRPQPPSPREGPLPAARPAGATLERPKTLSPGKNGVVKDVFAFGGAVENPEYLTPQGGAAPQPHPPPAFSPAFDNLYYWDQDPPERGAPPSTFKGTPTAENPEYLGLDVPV

Consider `CC(C)C[C@H](NC(=O)[C@H](Cc1ccccc1)NC(=O)c1cnccn1)B1O[C@H]2C[C@H]3C[C@H](C3(C)C)[C@@]2(CC(=O)N2CCC(CCn3ccc4cc(N(C(=N)c5cc(C(C)C)c(O)cc5O)C(N)=O)ccc43)CC2)O1` [US10117944, Compound SDC-TRAP-0245], for which the IC50 (commonly the point on the concentration scale where inhibition reaches its midpoint) turned out to be 117 nM.
